Measurements: patent US20090305271A1, “In Vitro Assay Based on Camp Levels Modulated by Gi-Coupled Receptors” (priority 2006, published 2009)

Columns and labels:
Format in all cases: cell-based
alpha 2c receptor = target: T1, alpha 2c receptor (Homo sapiens, UniProt P18825); experiment: cAMP assay with NKH477 or forskolin as activator, alpha 2c receptor stably expressed in CHO-S; conditions: alpha 2c in CHO-S, 1 μM of agonist (epinephrine)
T1 construct: expressed in transfected cells; host or cells: CHO-S
T1 sequence (P18825 1-462): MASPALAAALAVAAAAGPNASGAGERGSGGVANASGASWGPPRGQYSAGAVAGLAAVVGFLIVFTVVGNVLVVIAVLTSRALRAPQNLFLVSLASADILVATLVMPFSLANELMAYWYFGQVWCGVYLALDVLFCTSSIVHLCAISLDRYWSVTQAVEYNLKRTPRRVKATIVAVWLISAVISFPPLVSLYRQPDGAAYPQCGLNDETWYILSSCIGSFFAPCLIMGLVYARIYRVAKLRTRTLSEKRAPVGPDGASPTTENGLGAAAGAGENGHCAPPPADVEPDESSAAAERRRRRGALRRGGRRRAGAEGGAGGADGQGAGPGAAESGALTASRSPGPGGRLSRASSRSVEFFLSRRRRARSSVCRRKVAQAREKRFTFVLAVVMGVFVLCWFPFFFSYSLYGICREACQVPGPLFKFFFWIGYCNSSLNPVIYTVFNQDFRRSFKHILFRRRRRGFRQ
Method: (§1) To measure the production of cAMP from cells, cells were harvested and resuspended with HBSS Buffer. Varying concentrations of cells were plated in a 96-well plate. Serial dilutions of agonists (Dopamine or Epinephrine) were added and incubated for 10′ at room temperature with the cells. Forskolin or NKH477 were added, and the plate was incubated at 37° C. for 10 minutes. After cell induction, the assay reagents were added as outlined in the assay procedure.
For the alpha2c—CHO S cell line (alpha 2c stably transfected in CHO S host cell line) was incubate with 5 μM of NKH477 and Forskolin 10′ at 37° C. without or with 1 μM of Epinephrine
(§2) c) CHO-K1 cells expressing D4.4, alpha2c H3 and D2S receptors were exposed to increasing concentrations of ligands, respectively dopamine, epinephrine, histamine and dopamine ranging from 0.01 nM to 10 μM in the presence of 30 μM forskolin or 10 μM NKH-477.

[1] = tested on: adenylyl cyclase isoform V and/or VI; experiment: cAMP production with NKH-477 instead of forskolin as in vitro activator of cAMP formation; conditions: cells expressing the adenylyl cyclase isoform V and/or VI
[2] = target: T2, human dopamine D4.4 receptor (Homo sapiens, UniProt P21917); experiment: cAMP assay with NKH477 or forskolin as activator, D4.4 receptor stably expressed in CHO-K1; conditions: D4.4 in CHO-K1, 1 μM of agonist (dopamine)
T2 construct: expressed in transfected cells; host or cells: CHO-K1
T2 sequence (P21917 1-419): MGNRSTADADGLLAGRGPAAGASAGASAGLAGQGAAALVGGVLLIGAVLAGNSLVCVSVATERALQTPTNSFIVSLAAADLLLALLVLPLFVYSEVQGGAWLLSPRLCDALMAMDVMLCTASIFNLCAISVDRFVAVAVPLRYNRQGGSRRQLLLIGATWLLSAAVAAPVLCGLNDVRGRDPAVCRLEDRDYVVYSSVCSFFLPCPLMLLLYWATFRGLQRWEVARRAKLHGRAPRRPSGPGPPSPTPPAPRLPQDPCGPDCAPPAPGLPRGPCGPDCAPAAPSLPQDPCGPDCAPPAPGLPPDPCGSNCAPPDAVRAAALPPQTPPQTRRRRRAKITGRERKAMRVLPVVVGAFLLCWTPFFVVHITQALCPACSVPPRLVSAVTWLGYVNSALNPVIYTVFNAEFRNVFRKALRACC
Method: cAMP measurements on CHO-K1 cells that stably expressed the human muscarinic M4 or the human dopamine D4.4 receptor were performed via the HTRF (homogeneous time-resolved fluorescence) technology (CIS Bio, France). The principle of these cAMP assays is based on a competition between cAMP produced by cells and cAMP-XL665 conjugate for the binding with monoclonal anti-cAMP-cryptate conjugate. The HTRF) conjugates are prepared in lysis buffer so that the cell lysis and the detection step can be performed simultaneously.
as §1
For the D4—CHO K1 cell line (D4 stably transfected in CHO K1 host cell line) 0.7 μM of NKH477 and Forskolin were used with or without 1 μM of Dopamine
as §2

human muscarinic M4 = target: T3, human muscarinic M4 (Homo sapiens, UniProt P08173); experiment: cAMP HTRF functional assay, forskolin-induced cAMP production in M4/CHO/miRNA cell line
T3 construct: expressed in transfected cells; host or cells: CHO-K1 (M4/CHO and M4/CHO/miRNA cell lines)
T3 sequence (P08173 1-479): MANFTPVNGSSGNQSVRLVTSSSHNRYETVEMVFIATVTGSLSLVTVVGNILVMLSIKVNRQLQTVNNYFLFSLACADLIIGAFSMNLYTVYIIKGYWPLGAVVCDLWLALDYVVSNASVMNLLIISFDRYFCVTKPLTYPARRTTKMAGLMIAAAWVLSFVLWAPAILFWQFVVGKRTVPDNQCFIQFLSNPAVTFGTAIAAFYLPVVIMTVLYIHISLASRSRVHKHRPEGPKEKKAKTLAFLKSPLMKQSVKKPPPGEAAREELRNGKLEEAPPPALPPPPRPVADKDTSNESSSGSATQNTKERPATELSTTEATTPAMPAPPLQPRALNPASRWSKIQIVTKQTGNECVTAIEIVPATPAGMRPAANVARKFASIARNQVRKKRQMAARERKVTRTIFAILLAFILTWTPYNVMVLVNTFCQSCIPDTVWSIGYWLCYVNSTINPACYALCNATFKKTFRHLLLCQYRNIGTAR
Method: CHO-K1 stably expressing the human muscarinic M4 or the human dopamine D4.4 receptor were cultured under standard conditions. Cells were harvested by EDTA, washed once in phosphate buffered saline and resuspended in assay buffer (HBSS containing 0.1% glucose and 0.5 mM IBMX). The cells were dispensed into a black 96 half-well plate at a cell density of 10,000-15,000 cells. After incubation for 30 min at room temperature or at 37° C., an equal volume of assay buffer containing forskolin, then acetylcholine or quimpirole was added to the cells. After incubation for 30 min at room temperature or 37° C., cAMP detection was performed following the protocol described above. The plate was incubated for one more hour at room temperature and then measured on a RUBYstar^a (BMG Labtechnologies) time-resolved fluorescence reader. […]

Structure (SMILES)	enhancement of cAMP production inhibition with NKH477 instead of forskolin (alpha 2c receptor)	signal window compared with Forskolin (alpha 2c receptor)	increase of the production of cAMP instead of forskolin [1]	enhancement of cAMP production inhibition with NKH477 instead of forskolin [2]	signal window compared with Forskolin [2]	inhibition at 1 µM (human muscarinic M4; 1 μM, M4/CHO/miRNA cell line, read-out: inhibition of Forskolin stimulated cAMP production) [%]	increase of inhibitory potency on Forskolin induced cAMP production compared to wild CHO cells expressing M4 receptor (human muscarinic M4; M4/CHO/miRNA versus M4/CHO)
C=C[C@@]1(C)CC(=O)[C@]2(O)[C@@]3(C)[C@@H](O)CCC(C)(C)[C@@H]3[C@H](OC(=O)CCN(C)C)[C@H](OC(C)=O)[C@@]2(C)O1.Cl [NKH477, 6-(3-dimethylaminopropionyl) forskolin hydrochloride]	up to 20%	greater signal window than Forskolin	up to 20%	up to 20%	greater signal window than Forskolin	–	–
O=C1CCCN1CC#CCN1CCCC1 [Oxotremorine]	–	–	–	–	–	> 85	25-30%
